Measured values taken from patent US11795204B2 (Zealand Pharma A/S, priority 2012, dated 2023).
Square brackets hold non-standard residues; d marks the D form. Peptide text beside a SMILES is read from it. Dab = NCC[C@H](N)C(=O)O; Aib = CC(C)(N)C(=O)O

Assays:
human Glucagon-R = target: T1, human Glucagon-R (Homo sapiens, UniProt P47871); assay: Glucagon receptor assay (cAMP induction, AlphaScreen); format: cell-based; conditions: HEK293 cells expressing the human Glucagon-R, 15 min at 37° C., read-out: GCG-R EC50 in vitro
T1 construct: expressed in transfected cells
T1 sequence (P47871 26-477): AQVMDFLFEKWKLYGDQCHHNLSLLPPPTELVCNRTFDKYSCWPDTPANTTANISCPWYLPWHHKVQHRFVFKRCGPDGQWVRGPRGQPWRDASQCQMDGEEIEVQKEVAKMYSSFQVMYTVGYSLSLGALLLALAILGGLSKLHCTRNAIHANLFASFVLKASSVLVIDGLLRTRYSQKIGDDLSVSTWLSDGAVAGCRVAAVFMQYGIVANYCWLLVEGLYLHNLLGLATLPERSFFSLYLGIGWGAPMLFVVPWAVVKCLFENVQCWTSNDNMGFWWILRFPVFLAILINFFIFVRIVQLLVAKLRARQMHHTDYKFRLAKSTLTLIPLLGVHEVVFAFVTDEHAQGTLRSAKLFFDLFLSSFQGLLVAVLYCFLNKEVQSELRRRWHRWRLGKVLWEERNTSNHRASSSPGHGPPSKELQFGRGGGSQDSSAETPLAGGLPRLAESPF
Description: The 5′-end primers additionally encoded a near-Kozak consensus sequence to ensure efficient translation. […] 48 hr after transfection, cells were seeded for limited dilution cloning and selected with 1 mg/ml G418 in the culture medium.
On the day of analysis, growth medium was removed and the cells were washed once with […] of the included Assay buffer with IBMX. Cells were incubated in […] Assay buffer/IBMX containing increasing concentrations of test peptides for 15 min at 37° C. Then the peptides/Assay buffer was removed and cells were lysed by addition of […] Lysis buffer pr. well and incubation for at least 10 min at room temperature. From each well […] cell lysate was transferred to a 384-well OptiPlate and mixed with Donor and Acceptor beads and incubated for 1 h at room temperature. The cAMP content was measured on an Envision plate reader.

physchem = conditions: pH 7.5
Description: A stock solution of the test peptide (2 mg/ml; determined by measurement of the absorption of the solution at 280 nm, and using the theoretical extension coefficient based on the content of tryptophan and tyrosine in the peptide) in demineralized water adjusted to pH 2.5 with HCl was prepared, and aliquots were diluted 1:1 in 100 mM acetate buffer (pH 4.0) and 100 mM phosphate buffer (pH 7.5), respectively, and loaded in a standard flat-bottom, non-sterile 96-well UV Microplate. The absorbance of samples (single samples, n=1) at 280 and 325 nm was measured in an absorbance-based plate reader, which was preheated to ambient temperature.

[1] = Chemical stability assessment (RP-HPLC normalized purity); format: physicochemical; conditions: for Normalized purity pH 4.0 after 14 days: 1 mg/ml in 50 mM acetate buffer pH 4.0, 40° C.; for Normalized purity pH 7.5 after 14 days: 1 mg/ml in 50 mM phosphate buffer pH 7.5, 40° C.
Description: Samples were placed in glass vials and incubated at 40° C. The samples were analysed by reverse-phase HPLC on a C18 column with gradient elution using an acetonitrile/trifluoroacetic acid/water eluent system. The area-percentage (area-%) of the main peak after incubation time T=t (relative to time T=0) was detected by UV spectrometry at 220 nm. The purity was first determined as follows: Purity(area-%)=(area of main peak/total area of all peaks)×100. […] Normalized purity values in Table 2 were determined after 14 days of incubation.

Row | Compound | EC50 (human Glucagon-R) [nM] | solubility (physchem) [µg/mL] | Normalized purity pH 4.0 after 14 days [1] [%] | Normalized purity pH 7.5 after 14 days [1] [%]
1 | H-HSQGTFTSDYSKYLDSARAEDFVKWLES-OH [Compound 13] | 0.07 | ≥ 1000 | 84.6 | 88.8
2 | H-HSQGTFTSDYSKYLESARAESFVKWLEST-OH [Compound 16] | 0.39 | ≥ 1000 | 89.1 | 
3 | H-HSQGTFTSDLSKYLDSARAEDFVKWLEST-OH [Compound 11] | 0.11 | ≥ 1000 | 78.6 | 89.9
4 | CC(C)C[C@H](NC(=O)[C@H](Cc1c[nH]c2ccccc12)NC(=O)[C@H](CCCCN)NC(=O)[C@@H](NC(=O)[C@H](Cc1ccccc1)NC(=O)[C@H](CO)NC(=O)[C@H](CCC(=O)O)NC(=O)[C@H](C)NC(=O)[C@H](CCCNC(=N)N)NC(=O)[C@H](C)NC(=O)C(C)(C)NC(=O)[C@H](CC(=O)O)NC(=O)[C@H](CC(C)C)NC(=O)[C@H](Cc1ccc(O)cc1)NC(=O)[C@H](CCCCN)NC(=O)[C@H](CO)NC(=O)[C@H](Cc1ccc(O)cc1)NC(=O)[C@H](CC(=O)O)NC(=O)[C@H](CO)NC(=O)[C@@H](NC(=O)[C@H](Cc1ccccc1)NC(=O)[C@@H](NC(=O)CNC(=O)[C@H](CCC(N)=O)NC(=O)[C@H](CO)NC(=O)[C@@H](N)Cc1c[nH]cn1)[C@@H](C)O)[C@@H](C)O)C(C)C)C(=O)N[C@@H](CCC(=O)O)C(=O)N[C@@H](CO)C(=O)N[C@H](C(=O)O)[C@@H](C)O [Compound 15] (H-HSQGTFTSDYSKYLD[Aib]ARAESFVKWLEST-OH) | 0.03 | ≥ 1000 | 89.1 | 95.1
5 | CC(=O)NCC[C@H](NC(=O)[C@H](CO)NC(=O)[C@@H](N)Cc1c[nH]cn1)C(=O)NCC(=O)N[C@H](C(=O)N[C@@H](Cc1ccccc1)C(=O)N[C@H](C(=O)N[C@@H](CO)C(=O)N[C@@H](CC(=O)O)C(=O)N[C@@H](Cc1ccc(O)cc1)C(=O)N[C@@H](CO)C(=O)N[C@@H](CCCCN)C(=O)N[C@@H](Cc1ccc(O)cc1)C(=O)N[C@@H](CC(C)C)C(=O)N[C@@H](CC(=O)O)C(=O)NC(C)(C)C(=O)N[C@@H](C)C(=O)N[C@@H](CCCNC(=N)N)C(=O)N[C@@H](C)C(=O)N[C@@H](CCC(=O)O)C(=O)N[C@@H](CO)C(=O)N[C@@H](Cc1ccccc1)C(=O)N[C@H](C(=O)N[C@@H](CCCCN)C(=O)N[C@@H](Cc1c[nH]c2ccccc12)C(=O)N[C@@H](CC(C)C)C(=O)N[C@@H](CCC(=O)O)C(=O)N[C@@H](CO)C(=O)N[C@H](C(N)=O)[C@@H](C)O)C(C)C)[C@@H](C)O)[C@@H](C)O [Compound 24] (H-HS[Dab](Ac)GTFTSDYSKYLD[Aib]ARAESFVKWLEST-NH2) | 0.0078 | ≥ 1000 | 92.8 | 94.4
6 | CC(C)C[C@H](NC(=O)[C@H](Cc1c[nH]c2ccccc12)NC(=O)[C@H](CCC(=O)O)NC(=O)[C@@H](NC(=O)[C@H](Cc1ccccc1)NC(=O)[C@H](CO)NC(=O)[C@H](CCCCN)NC(=O)[C@H](C)NC(=O)[C@H](CCCNC(=N)N)NC(=O)[C@H](C)NC(=O)C(C)(C)NC(=O)[C@H](CC(=O)O)NC(=O)[C@H](CC(C)C)NC(=O)[C@H](Cc1ccc(O)cc1)NC(=O)[C@H](CCCCN)NC(=O)[C@H](CO)NC(=O)[C@H](Cc1ccc(O)cc1)NC(=O)[C@H](CC(=O)O)NC(=O)[C@H](CO)NC(=O)[C@@H](NC(=O)[C@H](Cc1ccccc1)NC(=O)[C@@H](NC(=O)CNC(=O)[C@H](CCC(N)=O)NC(=O)[C@H](CO)NC(=O)[C@@H](N)Cc1c[nH]cn1)[C@@H](C)O)[C@@H](C)O)C(C)C)C(=O)N[C@@H](CCC(=O)O)C(=O)N[C@@H](CCCCN)C(=O)N[C@H](C(=O)O)[C@@H](C)O [Compound 29] (H-HSQGTFTSDYSKYLD[Aib]ARAKSFVEWLEKT-OH) | 0.023 | ≥ 1000 | 91 | 91.6
7 | H-HSQGTFTSDYSKYLDEARAEDFVKWLEST-OH [Compound 14] | 0.15 | ≥ 1000 | 89.5 | 92.4
8 | CC(C)C[C@H](NC(=O)[C@H](Cc1c[nH]c2ccccc12)NC(=O)[C@H](CCCCN)NC(=O)[C@@H](NC(=O)[C@H](Cc1ccccc1)NC(=O)[C@H](CC(=O)O)NC(=O)[C@H](CCC(=O)O)NC(=O)[C@H](C)NC(=O)[C@H](CCCNC(=N)N)NC(=O)[C@H](C)NC(=O)C(C)(C)NC(=O)[C@H](CC(=O)O)NC(=O)[C@H](CC(C)C)NC(=O)[C@H](Cc1ccc(O)cc1)NC(=O)[C@H](CCCCN)NC(=O)[C@H](CO)NC(=O)[C@H](Cc1ccc(O)cc1)NC(=O)[C@H](CC(=O)O)NC(=O)[C@H](CO)NC(=O)[C@@H](NC(=O)[C@H](Cc1ccccc1)NC(=O)[C@@H](NC(=O)CNC(=O)[C@H](CCC(N)=O)NC(=O)[C@H](CO)NC(=O)[C@@H](N)Cc1c[nH]cn1)[C@@H](C)O)[C@@H](C)O)C(C)C)C(=O)N[C@@H](CCC(=O)O)C(=O)N[C@@H](CO)C(=O)N[C@H](C(=O)O)[C@@H](C)O [Compound 12] (H-HSQGTFTSDYSKYLD[Aib]ARAEDFVKWLEST-OH) | 0.03 | ≥ 1000 | 86.8 | 90.8
9 | CC(=O)NCC[C@H](NC(=O)[C@H](CO)NC(=O)[C@@H](N)Cc1c[nH]cn1)C(=O)NCC(=O)N[C@H](C(=O)N[C@@H](Cc1ccccc1)C(=O)N[C@H](C(=O)N[C@@H](CO)C(=O)N[C@@H](CC(=O)O)C(=O)N[C@@H](Cc1ccc(O)cc1)C(=O)N[C@@H](CO)C(=O)N[C@@H](CCCCN)C(=O)N[C@@H](Cc1ccc(O)cc1)C(=O)N[C@@H](CC(C)C)C(=O)N[C@@H](CC(=O)O)C(=O)NC(C)(C)C(=O)N[C@@H](C)C(=O)N[C@@H](CCCNC(=N)N)C(=O)N[C@@H](C)C(=O)N[C@@H](CCC(=O)O)C(=O)N[C@@H](CCC(=O)O)C(=O)N[C@@H](Cc1ccccc1)C(=O)N[C@H](C(=O)N[C@@H](CCCCN)C(=O)N[C@@H](Cc1c[nH]c2ccccc12)C(=O)N[C@@H](CC(C)C)C(=O)N[C@@H](CCC(=O)O)C(=O)N[C@@H](CO)C(=O)N[C@H](C(N)=O)[C@@H](C)O)C(C)C)[C@@H](C)O)[C@@H](C)O [Compound 40] (H-HS[Dab](Ac)GTFTSDYSKYLD[Aib]ARAEEFVKWLEST-NH2) | 0.0035 | ≥ 1000 |  | 
10 | H-HSQGTFTSDYSKYLDKRRAEDFVSWLEST-OH [Compound 18] | 0.026 | ≥ 1000 |  | 
11 | CC(C)C[C@H](NC(=O)[C@H](Cc1c[nH]c2ccccc12)NC(=O)[C@H](CCCCN)NC(=O)[C@@H](NC(=O)[C@H](Cc1ccccc1)NC(=O)[C@H](CCC(=O)O)NC(=O)[C@H](CCC(=O)O)NC(=O)[C@H](C)NC(=O)[C@H](CCCNC(=N)N)NC(=O)[C@H](C)NC(=O)C(C)(C)NC(=O)[C@H](CC(=O)O)NC(=O)[C@H](CC(C)C)NC(=O)[C@H](Cc1ccc(O)cc1)NC(=O)[C@H](CCCCN)NC(=O)[C@H](CO)NC(=O)[C@H](Cc1ccc(O)cc1)NC(=O)[C@H](CC(=O)O)NC(=O)[C@H](CO)NC(=O)[C@@H](NC(=O)[C@H](Cc1ccccc1)NC(=O)[C@@H](NC(=O)CNC(=O)[C@H](Cc1c[nH]cn1)NC(=O)[C@H](CO)NC(=O)[C@@H](N)Cc1c[nH]cn1)[C@@H](C)O)[C@@H](C)O)C(C)C)C(=O)N[C@@H](CCC(=O)O)C(=O)N[C@@H](CO)C(=O)N[C@H](C(N)=O)[C@@H](C)O [Compound 38] (H-HSHGTFTSDYSKYLD[Aib]ARAEEFVKWLEST-NH2) | 0.0047 | ≥ 1000 |  | 
12 | H-HSQGTFTSDYSKYLESARAEDFVKWLEST-OH [Compound 8] | 0.38 | ≥ 1000 |  | 
13 | CC(C)C[C@H](NC(=O)[C@H](Cc1c[nH]c2ccccc12)NC(=O)[C@H](CCCCN)NC(=O)[C@@H](NC(=O)[C@H](Cc1ccccc1)NC(=O)[C@H](CCC(=O)O)NC(=O)[C@H](CCC(=O)O)NC(=O)[C@H](C)NC(=O)[C@H](CCCNC(=N)N)NC(=O)[C@H](C)NC(=O)C(C)(C)NC(=O)[C@H](CC(=O)O)NC(=O)[C@H](CC(C)C)NC(=O)[C@H](Cc1ccc(O)cc1)NC(=O)[C@H](CCCCN)NC(=O)[C@H](CO)NC(=O)[C@H](Cc1ccc(O)cc1)NC(=O)[C@H](CC(=O)O)NC(=O)[C@H](CO)NC(=O)[C@@H](NC(=O)[C@H](Cc1ccccc1)NC(=O)[C@@H](NC(=O)CNC(=O)[C@H](CCC(N)=O)NC(=O)[C@H](CO)NC(=O)[C@@H](N)Cc1c[nH]cn1)[C@@H](C)O)[C@@H](C)O)C(C)C)C(=O)N[C@@H](CCC(=O)O)C(=O)N[C@@H](CCC(=O)O)C(=O)N[C@H](C(=O)O)[C@@H](C)O [Compound 36] (H-HSQGTFTSDYSKYLD[Aib]ARAEEFVKWLEET-OH) | 0.01 | ≥ 1000 |  | 
14 | H-HSQGTFTSDYSKYLDEARAKSFVEWLEKT-OH [Compound 27] | 0.063 | ≥ 1000 |  | 
